Values quoted from earlier work in publication PMC9963398, “Discovery of New Quinolone-Based Diarylamides as Potent B-RAF^V600E/C-RAF Kinase Inhibitors Endowed with Promising In Vitro Anticancer Activity” (International Journal of Molecular Sciences, 2023).

Tests used:
HS 578T = system: HS 578T; set-up: method as in PMID 32745753; settings: Breast cancer; cited from earlier work
SNB-75 = system: SNB-75; set-up: method as in PMID 32745753; settings: SNB-75, CNS cancer; cited from earlier work
HOP-92 = system: HOP-92; set-up: method as in PMID 32745753; settings: HOP-92, NSCL cancer; cited from earlier work
KM12 = system: KM12; set-up: method as in PMID 32745753; settings: KM12, Colon cancer; cited from earlier work
TK-10 = system: TK-10; set-up: method as in PMID 32745753; settings: TK-10, Renal cancer; cited from earlier work
IGROV1 = system: IGROV1; set-up: method as in PMID 32745753; settings: IGROV1, Ovarian cancer; cited from earlier work
MDA-MB-468 = settings: MDA-MB-468, Breast cancer; cited from earlier work
HOP-62 = system: HOP-62; set-up: method as in PMID 32745753; settings: HOP-62, NSCL cancer; cited from earlier work
EKVX = system: EKVX; set-up: method as in PMID 32745753; settings: NSCL cancer; cited from earlier work
SW-620 = system: SW-620; set-up: method as in PMID 32745753; settings: SW-620, Colon cancer; cited from earlier work
LOX IMVI = system: LOX IMVI; set-up: method as in PMID 32745753; settings: Melanoma; cited from earlier work
MOLT-4 = system: MOLT-4; set-up: method as in PMID 32745753; settings: MOLT-4, Leukemia; cited from earlier work

SMILES: CNC(=O)c1cc(Oc2ccc(NC(=O)Nc3ccc(Cl)c(C(F)(F)F)c3)cc2)ccn1 [Sorafenib]
- GI50 (HS 578T): 2600 nM
- GI50 (SNB-75): 3000 nM
- GI50 (HOP-92): 1600 nM
- GI50 (KM12): 1600 nM
- GI50 (TK-10): 4.4 µM
- GI50 (IGROV1): 2600 nM
- GI50 (MDA-MB-468): 2000 nM
- GI50 (HOP-62): 1900 nM
- GI50 (EKVX): 2500 nM
- GI50 (SW-620): 2800 nM
- GI50 (LOX IMVI): 1600 nM
- GI50 (MOLT-4): 2900 nM
